Data: patent US20120021079A1, “Garcinia Mangostana L. and Iridoid Based Formulations” (priority 2010, published 2012)

Experiments:
[1] = test system: E. coli PQ37; experiment: Anti-genotoxicity test (SOS-chromotest with 4NQO, Example Three); type: cell-based; details: for induction factor of 4NQO plus iridoid versus vehicle blank: 250 μg mL^−1 iridoid plus 1.25 μg mL^−1 4NQO; for Induction factor: 250 μg ml^−1 DAA or AA together with 1.25 μg ml^−1 4NQO, E. coli PQ37
Method: The primary DNA damage test was performed again, similar to the method described above. […] Induction factors were calculated in the same manner as described above.

[2] = Intra- and inter-day precision and stability assays of iridoids by HPLC-PDA; type: physicochemical; details: 3 consecutive days, HPLC sample solutions
Method: The limits of detection (LOD) and quantitation (LOQ) were defined as the lowest concentrations of analytes in a sample that can be detected and quantified. These LOD and LOQ limits were determined on the basis of signal-to-noise ratios (S/N) of 3:1 and 10:1, respectively. The working solutions of standards 1 and 2 for LOD and LOQ were prepared by diluting them sequentially. The intra- and inter-day precision assays, as well as stability tests were performed by following the method applied to the sample analysis for 3 consecutive days. Accuracy of the method (recovery) was assessed by the recovery percentage of iridoids 1 and 2 in the spiked samples. […] The recovery percentage was calculated using the ratio of concentration detected (actual) to those spiked (theoretical). Variation was evaluated by the relative standard deviation (RSD) of triplicate injections in the HPLC experiments.
The limits of detection (LOD) and quantitation (LOQ) were defined as the lowest concentrations of analytes in a sample that can be detected and quantified. These LOD and LOQ limits were determined on the basis of signal-to-noise ratios (S/N) of 3:1 and 10:1, respectively. […] Repeatability is the degree of agreement between results, when experimental conditions are maintained as constant as possible, and is expressed as the relative standard deviation (RSD) of replicates. […]

[3] = test system: E. coli PQ37; type: cell-based; details: 250 ug mL^−1 iridoid plus 1.25 ug mL^−1 4NQO; blank = 1
Method: The SOS-chromotest in E. coli PQ37 was used to determine the potential for iridoids in noni fruit from French Polynesia to prevent primary DNA damage. […] Replicate samples were evaluated. […] Following incubation with the samples, 5-bromo-4-chloro-3-indolyl-β-D-galactopyranoside was added to the wells to detect β-galactosidase enzyme activity, which is induced during SOS repair of damaged DNA. The samples were again incubated for 90 minutes and the absorbances of the samples, blank and positive control were measured at 620 nm with a microplate reader. The β-galactosidase enzyme activity induction factor of each material was calculated by dividing the absorbance of the sample at 620 nm by that of the blank, while also correcting for cell viability.

SMILES | induction factor of 4NQO plus iridoid versus vehicle blank [1] | Induction factor [1] | stability during investigation period [2] | induction factor (mean±standard deviation) [3]
CC(=O)OCC1=C[C@H](O)[C@@H]2C(C(=O)O)=CO[C@@H](O[C@@H]3O[C@H](CO)[C@@H](O)[C@H](O)[C@H]3O)[C@H]12 [AA, asperulosidic acid] | no statistical difference from that of the vehicle blank | 1.06 ± 0.03 | stable during investigation period | 
O=C(O)C1=CO[C@@H](O[C@@H]2O[C@H](CO)[C@@H](O)[C@H](O)[C@H]2O)[C@@H]2C(CO)=C[C@H](O)[C@H]12 [DAA, deacetylasperulosidic acid] | no statistical difference from that of the vehicle blank | 1.08 ± 0.12 | stable during investigation period | 0.98±0.02
